Results: US9880171B2, “iASPP phosphorylation and metastatic potential” (LUDWIG INSTITUTE FOR CANCER RESEARCH LTD., priority 2012, dated 2018)

How the values were obtained:
[1] = tested on: iASPP modification in H1299 cells; test: nocodazole-induced iASPP modification in H1299 cells, G2/M kinase inhibitor panel (immunoblotting); type: cell-based, human; conditions: panel of 15 G2/M kinase inhibitors, 2-10 μM, 10 μM nocodazole overnight
Method: FIG. 12. […] FIG. 12A. […] FIG. 12B. […] FIG. 12C.
FIG. 13. FIG. 13A. […] FIG. 13B.
FIG. 20. […] FIG. 20A. […] Bar=20 μm.
For WB, cells were lysed in buffer containing 8 M urea, 1 M thiourea, 0.5% CHAPS, 50 mM DTT, and 24 mM spermine. A total of 40 μg of protein extract was loaded per lane into SDS-polyacrylamide gels. Gels were transferred onto nitrocellulose membrane (Protran) and the resulting blots incubated first with primary antibody overnight at 4° C. and then with the appropriate secondary horseradish peroxidize-conjugated antibody (Dako). The results were visualized by enhanced chemiluminescent detection (Amersham Biosciences) using X-ray film (Fujifilm).

[2] = tested on: WM278, Me300 and SK-MEL37 melanoma cell lines; test: p53-dependent apoptosis assay (subG1 DNA content, PI/FACS), Example 8; type: cell-based, human; conditions: 0.3 μM K00616a, 20 μM nutlin3, 1 μM PLX4032, agent alone, 72 hours
Method: Cells were transfected with siRNA as shown and pre-seeded on 6 well plates ON, 0.3 μM cyclin B1/cdk1 inhibitors K00616a were then added for 48 hours to block iASPP modification. Cells were then treated with 0.3 μM K00616a, 20 μM nutlin3, or combinations of these drugs for another 72 hours. Cells were collected and cell cycle status, growth potential, and protein expression pattern were then determined by PI staining/FACS analysis, colony formation assay, and WB, respectively. […] Cells were pre-seeded on 6 well plates for overnight, 0.3 μM cyclin B1/cdk1 inhibitors K00616a were then added for 48 hours to block iASPP modification. Cells were then treated with 0.3 μM K00616a, 20 μM nutlin3, 1 μM PLX4032, or combinations of these drug for another 72 hours. Cells were collected and cell cycle status, growth potential, and protein expression pattern were then determined by PI staining/FACS analysis, colony formation assay, and WB, respectively.
Cells were harvested, washed and fixed in ice-cold 70% EtOH. […] After 30 min RT incubation cells were analyzed by flow cytometry.
WM278 and Me300 also express wild type p53, whereas SK-MEL37 expresses mutant p53. […] Wild type p53 function was measured by a p53-dependent apoptosis assay, detecting the percentage of cells containing subG1 DNA content and growth suppression in a clonogenic survival assay.

[3] = tested on: WM278, Me300 and SK-MEL37 melanoma cell lines; test: clonogenic survival / colony formation assay, Example 8
[4] = tested on: p53 expression in B16 cells; test: p53 level after Nutlin3 treatment, B16 cells; type: cell-based, mouse
Method: (§1) FIG. 20. Restoring p53 by inhibiting mdm2 and iASPP suppresses melanoma growth in vitro and in vivo. FIG. 20A. H1299 cells were treated with DMSO or 10 μM nocodazole in the presence or absence of 2 or 10 μM of mitosis-related kinase inhibitors as indicated. […] FIG. 20B. Left panel: representative p53 level after Nutlin3 treatment for 24 hours in a variety of cells. Right bar graphs show the sub-G1 proportion of WM278 after treatment as that described in FIG. 19B (in upper panel, 10 μM and 20 μM Nutlin3 were used in parallel for comparison). From left to right of the upper right bar graph of FIG. 20B, the bars correspond to DMSO, Nut and JNJ+Nut, respectively. From left to right of the bottom bar graph of FIG. 20B, the bars correspond to DMSO, JNJ, Nut and JNJ+Nut, respectively. FIG. 20C. Me300, SK-MEL37, and B16 cells were treated as above (For B16 panel, 10 μM Nutlin3 was used) and sub-G1 proportion was analyzed. In (B) and (C), the bar graphs (mean±SD) were derived from three independent experiments. *p<0.05. FIG. 20D. Left panel: untreated B16 cells were subcutaneously injected into mice at day 1. […] Compound administration and tumor size measurement were repeated every two days from day 7 onwards. Bar graphs are shown as mean±SD (*p<0.05, n=6). FIG. 20E. Lower panels show representative images of isolated tumors. Right panel: representative H & E staining in B16 tumor section. Bar=20 μm. […]

[5] = tested on: p53 expression in SK-MEL37, WM278 and Me300 cells; test: p53 level after Nutlin3 treatment, human melanoma cells; type: cell-based
Method: as §1

Compound	prevention of nocodazole-induced iASPP modification [1]	apoptotic cell death (subG1) [2]	growth suppression (colonies) ([3]; WM278, Me300 and SK-MEL37, agent alone)	effect on the growth suppression effects of PLX4032 ([3]; added alone to PLX4032)	optimal concentration of Nutlin3 to induce maximal p53 expression [4] [µM]	optimal concentration of Nutlin3 to induce maximal p53 expression ([5]; SK-MEL37) [µM]	optimal concentration of Nutlin3 to induce maximal p53 expression ([5]; WM278 and Me300 cells) [µM]
Nc1nc(Nc2ccc(S(N)(=O)=O)cc2)nn1C(=O)c1c(F)cccc1F [JNJ-7706621]	most potent inhibitor of iASPP modification						
COc1ccc(C2=N[C@@H](c3ccc(Cl)cc3)[C@@H](c3ccc(Cl)cc3)N2C(=O)N2CCNC(=O)C2)c(OC(C)C)c1 [Nutlin3]		very low rates of apoptotic cell death	limited	minimal effect	10	2	20
